Source: PMC10527105, “Chirality Matters: Fine-Tuning of Novel Monoamine Reuptake Inhibitors Selectivity through Manipulation of Stereochemistry” (Biomolecules, 2023)

Key:
[1] = test system: Schaffer collateral (SC)-CA1 synapses; assay: Ex vivo electrophysiology in hippocampal slices of aged rats; parameters: species or system Sprague–Dawley rats
Description: Animals. Male Sprague–Dawley rats (22–23 months old) were bred and kept in the Core Unit of Biomedical Research, Division of Laboratory Animal Science and Genetics, Medical University of Vienna. Rats were housed in groups of two in standard Makrolon cages filled with autoclaved woodchips (temperature: 22 ± 2 °C; humidity: 55 ± 5%; 12 h artificial light/12 h dark cycle: light on at 7:00 am). Tap water and food were provided ad libitum. The study was carried out according to the guidelines of the ethics committee at the Medical University of Vienna and was approved by the Federal Ministry of Education, Science, and Culture, Austria (BMBWF-66.009/235/V/3b/2018).
Hippocampal Slices Preparation. Acutely dissected hippocampal slices obtained from rat singles administered with vehicle or 10 mg/kg for 7h (1 h prior to brain extraction) were prepared as previously described, with slight modifications. Briefly, rats were anesthetized by 50 s isoflurane inhalation exposure, and (upon the absence of corneal reflexes), animals were decapitated using a high-precision, hardened, sharp-blade rodent guillotine (DCAP-M, World Precision Instruments, Inc., Sarasota, FL, USA). […]
Extracellular recording. […] An AxoClamp-2B amplifier, Digidata-1440 interface (Axon Instruments, Molecular Devices, Berkshire, UK), and pClamp-11 software (Molecular Devices, Berkshire, UK) were used for data acquisition and analysis. fEPSPs were recorded at 0.033 Hz. […]
Hippocampal synaptic potentiation was induced by delivering 4 trains of 20 pulses at 100 Hz (200 μs/pulse) with a 500 ms inter-train interval, a variant of the different forms of HFS protocol known to induce both post-tetanic potentiation (PTP) and long-term potentiation (LTP) in hippocampal CA3-CA1 hippocampal synapses in young rodents. Synaptic plasticity was assessed by quantifying the time course of changes in fEPSP slope (decaying phase) after applying the plasticity-inducing protocol, normalized to the average of all fEPSP slopes recorded during the preceding baseline recording period. […]

[2] = Compound brain levels after intraperitoneal injection; type: in vivo; settings: single intraperitoneal injection, 10 mg/kg, Sprague–Dawley rats
Description: Compound brain levels. For an in-depth description of the brain and blood at 7h, we refer to the protocol of Evotec (France, Study No. DMPK-2020-494) in the supplementary information file.

Row | Compound | basal synaptic transmission: fEPSP slopes (I/O curves) vs vehicle ([1]; acute 10 mg/kg, aged rats (22–23 months), hippocampal slices) | long-term potentiation (LTP) after HFS vs vehicle ([1]; acute treatment, aged rats, for at least 40 min after HFS) | early post-tetanic potentiation (PTP) responses vs vehicle ([1]; acute treatment, aged rats, right after HFS, Sidak post hoc p < 0.0001) | Cmax ([2]; rat, brain, ip) | half-life ([2]; rat, brain, ip) | Tmax ([2]; rat, brain, ip, read-out: median Tmax in the brain) | detectable in brain post-administration [2]
1 | [O-][S@+](Cc1cccs1)[C@H](c1ccccc1)c1cccc(Br)c1 [Compound 8h, (R,R)-2-((((3-bromophenyl)(phenyl)methyl)sulfinyl)methyl)thiophene] | significantly enhanced | significantly increased and maintained LTP | statistically significant (p < 0.0001) enhancement | – | – | – | –
2 | [O-][S@@+](Cc1cccs1)[C@@H](c1ccccc1)c1cccc(Br)c1 [Compound 7h, (S,S)-2-((((3-bromophenyl)(phenyl)methyl)sulfinyl)methyl)thiophene] | – | – | – | 478 ng/g | 3 h | 1 h | up to 10 h
